Values joined by “and” are separate entries in the source; they are usually repeats but may differ in a detail not shown here. Equal values may be shown once. “Also recorded” adds a separate entry of the source.

Data set [1] has as its system CFA-induced inflammatory pain. Description: Paw pressure test, CFA-induced inflammatory pain, single (acute) oral administration (Experiment 1). The data set is classed as in vivo, male Sprague-Dawley rats. The settings on record: for Pr > F: PEA 10 mg/kg. The source says: In the in vivo experimentation, male Sprague-Dawley rats (200-250 g) (Envigo, Varese, Italy) fed "ad libitum" and housed in cages with a controlled sleep/wake cycle were used.
Before the start of the study, the animals were subjected to a 1-week acclimatization period at the Center for Laboratory Animal Sheltering (Ce.S.A.L.) of the University of Florence, following all experimental procedures and protocols compliant with the principles of care and welfare of laboratory animals approved by the Italian Ministry of Health (Italian Legislative Decree 2014/26), European directives (EU Directive 2010/63) and the ARRIVE guidelines.
In order to cause inflammatory pain, Complete Freund's Adjuvant (CFA) was injected at a rate of 50 µL into the joint cavity of the left leg between the tibiofibular and tarsal bones after light anesthesia with 2% isoflurane. The control group was subjected to the same procedure, injecting an equal volume of saline solution (vehicle).
The animals were divided into 9 groups of 6 rats each and treated acutely per os with a single administration, starting from the seventh day after the induction of joint damage. • Group 1: healthy rats subjected to intra-articular injection of saline (vehicle group) • Group 2: rats injected with CFA and treated with 1% CMC, corresponding to the vehicle in which the compounds for the treatments of the following groups were suspended (CFA group); • Group 3: rats injected with CFA and treated with micronized PEA 10 mg/kg; • Group 4: rats injected with CFA and treated with diclofenac 30 mg/kg; • Group 5: rats injected with CFA and treated with diclofenac 3 mg/kg; • Group 6: rats injected with CFA and treated with diclofenac 3 mg/kg + micronized PEA 10 mg/kg; • Group 7: rats injected with CFA and treated with meloxicam 30 mg/kg; • Group 8: rats injected with CFA and treated with meloxicam 3 mg/kg; • Group 9: rats injected with CFA and treated with meloxicam 3 mg/kg + micronized PEA 10 mg/kg.
All animals were subjected to the paw pressure test at the level of the ipsilateral paw, performed before (T0) or after 15, 30, 45 and 60 minutes after the single administration of the treatment (T15, T30, T45 and T60, respectively). In particular, the nociceptive threshold was calculated with an analgesiometer (Ugo Basile, Varese, Italy) by applying an increasing pressure at constant speed (32 g/s) by means of a non-pointed conical support on the dorsal surface of the ipsilateral paw with respect to the injection of CFA (or vehicle). The nociceptive threshold was expressed as the force (in decagrams, dag) to which the animal reacts by retracting the paw or vocalizing (Leighton GE et al. kappa-Opioid agonists produce antinociception after i.v. and i.c.v. but not intrathecal administration in the rat. Br J Pharmacol. 1988; 93: 553-60).
The values emerged from the paw pressure test in the different treatment groups were compared with each other using the Generalized Linear Mixed Model (GLMM) followed by post-hoc analysis based on Tukey-Kramer correction for multiple comparisons, referring to the single treatment group, considering all the times.
The AUC was analyzed by a two-way factor analysis of variance (2x2 ANOVA), after plotting the mean values, according to the procedure shown by Slinker BK. The statistics of synergism. J Mol Cell Cardiol. 1998 Apr;30(4):723-31. The values were expressed as mean ± standard error mean (SEM). All the statistical analyses were carried out using the software SAS, version 9.4 (SAS Institute, Cary, NC, USA). The value p < 0.05 was considered significant.

The conditions of data set [2]: in vivo; cited from earlier work.

Consider `CCCCCCCCCCCCCCCC(=O)NCCO` [PEA, N-palmitoylethanolamide], for which the “Pr > F” value in data set [1] (ANOVA 2x2 on AUC of paw pressure test (Figure 2), diclofenac 3 mg/kg, line PEA*Dicl 3 = interaction (synergy)) amounted to 0.0002; in data set [1] (ANOVA 2x2 on AUC of paw pressure test (Figure 4), meloxicam 3 mg/kg, line PEA*Mel 3 = interaction (synergy)) it was 0.0003. Besides, the “p with respect to the CFA group (pain tolerance threshold)” value in data set [1] (CFA-injected rats, single per os administration on day 7, micronized PEA 10 mg/kg and/or NSAID 3 mg/kg, GLMM with Tukey-Kramer) is 0.9674 and 0.9588. In addition, the “pain tolerance threshold with respect to the CFA group” value in data set [1] (CFA-injected rats, single per os administration on day 7 after CFA, micronized PEA 10 mg/kg and/or NSAID 3 mg/kg, T0-T60 min, all times considered) is given as “no significant difference; also recorded: no significant effect”. Besides, the “dose free of acute and sub-chronic toxicity” value in data set [2] is no less than 1000 mg/kg daily.

These data come from EP4628074A1, “N-PALMITOYLETHANOLAMIDE FOR USE IN COMBINATION WITH A NON-STEROIDAL ANTI-INFLAMMATORY DRUG IN THE TREATMENT OF INFLAMMATORY PAIN” (priority 2024, dated 2025).
